The values that follow come from US20220056043A1, “NITROGEN-CONTAINING FUSED CYCLIC COMPOUND, PREPARATION METHOD THEREFOR AND USE THEREOF” (SICHUAN KELUN-BIOTECH BIOPHARMACEUTICAL CO., LTD., priority 2019, published 2022).

The test system of one assay is THP1-defNLRP3 cells. Kind of assay: Agonistic effect on the expression of IL-1β in NLRP3 deficient THP1 cells (THP1-defNLRP3) after PMA-induced differentiation (HTRF). The format is cell-based, human. Particulars: Homo sapiens, THP-1; IL-1β level, PMA-differentiated NLRP3 deficient THP1 cells, 6 hours; highest test concentration 30 μM; read-out: hNLRP3 EC50 (μM) (THP-1defNLRP3). Put shortly:
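PMA-differentiated (1 μM, 24 h) NLRP3-deficient THP1 macrophages, 1×10^5 cells/well in RPMI 1640 with 2% heat-inactivated FBS, treated with compound for 6 h at 37 °C. Supernatant IL-1β measured by HTRF. EC50 from four-parameter variable-slope fit.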

Another assay addresses T1, hTLR8 (Homo sapiens, UniProt Q9NR97).
T1 construct: host or cells: HEK-Blue hTLR8 cells
T1 sequence (Q9NR97 27-1041): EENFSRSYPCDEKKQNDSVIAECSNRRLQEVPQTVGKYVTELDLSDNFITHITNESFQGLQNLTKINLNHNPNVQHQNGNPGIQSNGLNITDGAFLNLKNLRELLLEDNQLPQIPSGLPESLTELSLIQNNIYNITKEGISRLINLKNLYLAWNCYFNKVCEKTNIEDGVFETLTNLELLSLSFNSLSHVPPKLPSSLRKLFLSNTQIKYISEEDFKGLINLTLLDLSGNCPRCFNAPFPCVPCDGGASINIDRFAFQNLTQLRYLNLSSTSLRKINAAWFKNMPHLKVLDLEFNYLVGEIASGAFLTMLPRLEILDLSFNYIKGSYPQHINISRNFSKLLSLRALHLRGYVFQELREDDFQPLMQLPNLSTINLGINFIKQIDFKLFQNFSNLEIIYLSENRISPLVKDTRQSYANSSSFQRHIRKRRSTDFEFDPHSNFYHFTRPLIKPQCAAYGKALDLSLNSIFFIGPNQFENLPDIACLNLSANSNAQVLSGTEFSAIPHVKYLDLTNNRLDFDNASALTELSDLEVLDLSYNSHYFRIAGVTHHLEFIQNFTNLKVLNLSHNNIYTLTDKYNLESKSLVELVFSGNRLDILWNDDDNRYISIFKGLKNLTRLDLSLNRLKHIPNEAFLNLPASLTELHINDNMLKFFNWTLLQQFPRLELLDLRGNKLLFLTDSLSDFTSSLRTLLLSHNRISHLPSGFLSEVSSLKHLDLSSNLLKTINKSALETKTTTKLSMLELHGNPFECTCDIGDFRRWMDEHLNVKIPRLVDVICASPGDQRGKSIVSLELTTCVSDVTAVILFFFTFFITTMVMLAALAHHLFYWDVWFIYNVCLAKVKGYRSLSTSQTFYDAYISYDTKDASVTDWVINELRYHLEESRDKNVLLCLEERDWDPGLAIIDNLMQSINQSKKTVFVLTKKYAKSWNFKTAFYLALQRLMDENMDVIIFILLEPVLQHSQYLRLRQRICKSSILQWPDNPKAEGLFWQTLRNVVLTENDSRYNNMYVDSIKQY
Kind of assay: Agonistic effect on hTLR8, HEK-Blue hTLR8 cells, alkaline phosphatase secretion. The format is cell-based. Particulars: 16 hours. In short, it runs like this:
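HEK-Blue hTLR8 reporter cells were treated with compound (diluted from 10 mM DMSO stock) for 16 h at 37 °C in DMEM/10% FBS. Secreted alkaline phosphatase in supernatant was detected with QUANTI-Blue after 3 h at 37 °C, read at OD620. EC50 came from a four-parameter variable-slope fit.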

Broadly, the EC50 is the concentration giving half of the maximal effect. For `C[C@@H]1CN(c2cc(N)nc3cc(-c4ccn[nH]4)sc23)C[C@@H](C)O1` [Compound 148, 7-((2R,6R)-2,6-dimethylmorpholino)-2-(1H-pyrazol-5-yl)thieno[3,2-b]pyridine-5-amine], the EC50 in the assay on THP1-defNLRP3 cells was more than 30 µM; on hTLR8, more than 100 µM.

For the molecule `Cc1noc(C)c1CNc1cc(N)nc2cc(-c3ccn[nH]3)sc12` [Compound 149, N^7-((3,5-dimethylisoxazol-4-yl)methyl)-2-(1H-pyrazol-5-yl)thieno[3,2-b]pyridine-5,7-diamine], the EC50 in the assay on THP1-defNLRP3 cells is more than 30 µM; at hTLR8, more than 100 µM.

For `Nc1cc(NCCCN2CCCC2=O)c2sc(-c3ccn[nH]3)cc2n1` [Compound 150], the EC50 in the assay with THP1-defNLRP3 cells was more than 30 µM; at hTLR8, more than 100 µM.

Turning to `Cc1c(-c2cc[nH]n2)sc2c(NCC(C)(C)CO)cc(N)nc12` [Compound 151], the EC50 was more than 30 µM in the assay with THP1-defNLRP3 cells and more than 100 µM on hTLR8.

Turning to `COCCNc1cc(N)nc2c(C)c(-c3cc[nH]n3)sc12` [Compound 152], the EC50 is more than 30 µM in the assay with THP1-defNLRP3 cells and more than 100 µM at hTLR8.
